Source: patent publication US20060069132A1, “Azolecarboxamide herbicides” (priority 2004, published 2006)

Experiments:
cocklebur (XANST) = assay: Test J Compounds 2 and 6 alone and in combination with other herbicides, foliage spray; format: in vivo, Xanthium strumarium; parameters: key: 0 = no effect, 100 = complete control; conditions: applied alone
From the text: (§1) Seeds of test plants consisting of barnyardgrass (ECHCG; Echinochloa crus-galli (L.) Beauv.), blackgrass (ALOMY; Alopecurus myosuroides Huds.), Surinam grass (BRADC; Urochloa decumbens (Staph) R. D. Webster, previously named Brachiaria decumbens Stapf), cocklebur (XANST, Xanthium strumarium L.), corn (ZEAMD, Zea mays L. cv. ‘Pioneer 33G26’), large crabgrass (DIGSA, Digitaria sanguinalis (L.) Scop.), giant foxtail (SETFA, Setaria faberi Herrm.), lambsquarters (CHEAL, Chenopodium album L.), morningglory (IPOCO, Ipomoea coccinea L.), pigweed (AMARE, Amaranthus retroflexus L.), velvetleaf (ABUTH, Abutilon theophrasti Medik.) wheat (TRZAS, Triticum aestivum L. cv. ‘Recital’) and wild oat (AVEFA, Avena fatua L.) were planted in Redi-Earth® planting medium (Scotts Company, 14111 Scottslawn Road, Marysville, Ohio 43041) comprising spaghnum peat moss and vermiculite. Seeds of small-seeded species were planted about 1 cm deep; larger seeds were planted about 2.5 cm deep. Plants were grown in a greenhouse using supplemental lighting to maintain a photoperiod of about 14 hours; daytime and nighttime temperatures were about 24-30° C. and 22-25° C., respectively. Balanced fertilizer was applied through the watering system. […] Also listed in Table J are the expected effects for the mixtures calculated using Colby's Equation.

wheat (TRZAS) = assay: as above; format: in vivo, Triticum aestivum; parameters: key: 0 = no effect, 100 = complete control; conditions: applied alone
From the text: Colby's Equation was used to calculate the expected additive herbicidal effect of the mixtures of Compound 6 with Harmony® Extra (i.e. a 2:1 mixture by weight of thifensulfuron-methyl and tribenuron-methyl). […]
as §1, with “vermiculite.” for “vermiculite. Seeds of small-seeded species were planted about 1 cm deep; larger seeds were planted about 2.5 cm deep. Plants were grown in a greenhouse using supplemental lighting to maintain a photoperiod of about 14 hours; daytime and nighttime temperatures were about 24-30° C. and 22-25° C., respectively. Balanced fertilizer was applied through the watering system.”

annual blugrass = assay: Test F pre-/postemergence herbicide test; format: in vivo, Poa annua
From the text: (§2) Seeds of plant species selected from annual blugrass (Poa annua L.), blackgrass (Alopecurus myosuroides Huds.), catchweed bedstraw (Gallium aparine L.), common chickweed (Stellaria media (L.) Vill./Cyr.), downy bromegrass (Bromus tectorum L.), green foxtail (Setaria viridis (L.) Beauv.), Italian ryegrass (Lolium multiflorum Lam.), kochia (Kochia scoparia (L.). Schrad.), lambsquarters (Chenopodium album L.), littleseed canarygrass (Phalaris minor Retz.), pigweed (Amaranthus retroflexus L.), Russian thistle (Salsola kali L. ssp. Ruthenica (Iljin) Soo), wild buckwheat (Polygonum convolvulus L.), wild mustard (Sinapis arvensis L.), wild oat (Avena fatua L.), windgrass (Apera spica-venti (L.) Beauv.), winter barley (Hordeum vulgare L.), and wheat (Triticum aestivum L.) were planted and treated preemergence with test chemicals formulated in a non-phytotoxic solvent mixture which included a surfactant.
(§3) At the same time, plants selected from these crop and weed species were treated with postemergence applications of some of the test chemicals formulated in the same manner. Plants ranged in height from 2 to 18 cm (1- to 4-leaf stage) for postemergence treatments. Treated plants and controls were maintained in a greenhouse for 12 to 14 days, after which time all species were compared to controls and visually evaluated. Plant response ratings, summarized in Table F, are based on a scale of 0 to 100 where 0 is no effect and 100 is complete control. A dash (-) response means no test result.

green foxtail = assay: Test F pre-/postemergence herbicide test; format: in vivo, Setaria viridis
From the text: as §2, §3

wild buckwheat = assay: Test F pre-/postemergence herbicide test; format: in vivo, Polygonum convolvulus
From the text: as §2, §3

winter barley = assay: Test F pre-/postemergence herbicide test; format: in vivo, Hordeum vulgare
From the text: as §2, §3

CCn1nc(C(C)(C)C)cc1C(=O)Nc1cc(C(=O)N(C)C)ccc1F [Compound 6, N-[5-[(dimethylamino)carbonyl]-2-fluorophenyl]-3-(1,1-dimethylethyl)-1-ethyl-1H-pyrazole-5-carboxamide]
XANST Obsd. (cocklebur (XANST); 62 g a.i./ha): 67
XANST Obsd. (cocklebur (XANST); 125 g a.i./ha): 63
TRZAS Obsd. (wheat (TRZAS); 62 g a.i./ha): 15
TRZAS Obsd. (wheat (TRZAS); 125 g a.i./ha): 30

CCn1nc(C(C)(C)C)cc1C(=O)Nc1cc(C(=O)OC(C)C)c(F)cc1F [Compound 248]
Plant response rating (0-100), Bluegrass (annual blugrass; Postemergence, 31 g ai/ha): 50
Plant response rating (0-100), Bluegrass (annual blugrass; Postemergence, 62 g ai/ha): 50
Plant response rating (0-100), Bluegrass (annual blugrass; Postemergence, 125 g ai/ha): 60
Plant response rating (0-100), Bluegrass (annual blugrass; Postemergence, 250 g ai/ha): 70
Plant response rating (0-100), Bluegrass (annual blugrass; Preemergence, 31 g ai/ha): 70
Plant response rating (0-100), Bluegrass (annual blugrass; Preemergence, 62 g ai/ha): 70
Plant response rating (0-100), Bluegrass (annual blugrass; Preemergence, 125 g ai/ha): 100
Plant response rating (0-100), Bluegrass (annual blugrass; Preemergence, 250 g ai/ha): 100
Plant response rating (0-100), Foxtail, Green (green foxtail; Postemergence, 31 g ai/ha): 50
Plant response rating (0-100), Foxtail, Green (green foxtail; Postemergence, 62 g ai/ha): 60
Plant response rating (0-100), Foxtail, Green (green foxtail; Postemergence, 125 g ai/ha): 60
Plant response rating (0-100), Foxtail, Green (green foxtail; Postemergence, 250 g ai/ha): 65
Plant response rating (0-100), Foxtail, Green (green foxtail; Preemergence, 31 g ai/ha): 65
Plant response rating (0-100), Foxtail, Green (green foxtail; Preemergence, 62 g ai/ha): 65
Plant response rating (0-100), Foxtail, Green (green foxtail; Preemergence, 125 g ai/ha): 100
Plant response rating (0-100), Foxtail, Green (green foxtail; Preemergence, 250 g ai/ha): 100
Plant response rating (0-100), Buckwheat, Wild (wild buckwheat; Postemergence, 31 g ai/ha): 50
Plant response rating (0-100), Buckwheat, Wild (wild buckwheat; Postemergence, 62 g ai/ha): 50
Plant response rating (0-100), Buckwheat, Wild (wild buckwheat; Postemergence, 125 g ai/ha): 50
Plant response rating (0-100), Buckwheat, Wild (wild buckwheat; Postemergence, 250 g ai/ha): 60
Plant response rating (0-100), Buckwheat, Wild (wild buckwheat; Preemergence, 31 g ai/ha): 30
Plant response rating (0-100), Buckwheat, Wild (wild buckwheat; Preemergence, 62 g ai/ha): 40
Plant response rating (0-100), Buckwheat, Wild (wild buckwheat; Preemergence, 125 g ai/ha): 45
Plant response rating (0-100), Buckwheat, Wild (wild buckwheat; Preemergence, 250 g ai/ha): 60
Plant response rating (0-100), Barley, Winter (winter barley; Postemergence, 31 g ai/ha): 25
Plant response rating (0-100), Barley, Winter (winter barley; Postemergence, 62 g ai/ha): 30
Plant response rating (0-100), Barley, Winter (winter barley; Postemergence, 125 g ai/ha): 30
Plant response rating (0-100), Barley, Winter (winter barley; Postemergence, 250 g ai/ha): 40
Plant response rating (0-100), Barley, Winter (winter barley; Preemergence, 31 g ai/ha): 0
Plant response rating (0-100), Barley, Winter (winter barley; Preemergence, 62 g ai/ha): 0
Plant response rating (0-100), Barley, Winter (winter barley; Preemergence, 125 g ai/ha): 0
Plant response rating (0-100), Barley, Winter (winter barley; Preemergence, 250 g ai/ha): 35
